Patent publication US10752900B2, “Oligonucleotides for modulating gene expression and uses thereof” (BIOGENERA S.P.A., priority 2012, dated 2020)
In the oligonucleotide strings, read from the 5' end, every base follows the letter of its sugar. An asterisk marks phosphorothioate; unmarked linkages are phosphodiester. Other units and linkages are bracketed, terminal groups are in braces. A string of capitals states the bases alone. d = 2'-deoxy (DNA)

How the values were obtained:
[1] = tested on: rabdomyosarcoma cells (RH30); assay: Cellular proliferation assay (ATP-Lite), RH30 cells; format: cell-based, human
Procedure: For the purpose of assessing the gene modulation ability of the oligonucleotides of the present invention, the effect of their administration on cell viability was determined. For this purpose 5×10^3 cells per well were seeded into 96-well cell culture plates (experiments conducted in triplicate) with 100 μl of OPTI-MEM (GIBCO BRL) medium containing 4% FBS and 2 mM of L-glutammine. The PNA oligonucleotides were administered at different concentrations (1 μM-2.5 μM-5 μM-10 μM) in order to observe a dose-effect relationship. As regards all the other oligonucleotides, the concentrations at which they administered are listed in the paragraph: The viability of the treated cells was determined at 48, 72, 96 and 168 hours after treatment. Cell viability was assessed by means of an ATP-Lite assay (Luminescence ATP Detection Assay System, PerkinElmer) and is reported as the ratio between the average signal of the treated wells compared to the average value of the wells of untreated control cells. The cells were processed following the instructions provided with the kit. The assays were performed on the same cell lines used to determine the levels of the MYCN gene messenger and listed in the paragraph: Treatments with Oligonucleotides-QT-PCR. The PNAs having SEQ ID NO: 1-12 were also tested on different cell lines which overexpress MYCN (Kelly, SKNBE2c, RH30, […] 1 and H69). The results are shown in Table 6 and confirm the selectivity and specificity of the inhibition effect of the PNAs on the product of protein translation of the MYCN gene. Chimeric oligonucleotides comprising DNA monomers and LNA monomers and having the MYCN gene as their target were tested in vitro on alveolar rabdomyosarcoma cells (RH30). […] The antisense oligonucleotides designed and synthesized by the Applicant according to the parameters described in the present invention were analyzed in vitro on rabdomyosarcoma cells (RH30).

MYCN gene = assay: QT-PCR, MYCN mRNA in RH30 cells; format: cell-based, human
Procedure: For the purpose of assessing the ability of the oligonucleotides of the present invention to modulate the expression of the target genes, their ability to reduce the quantity of messenger RNA was analyzed using the Real-Time PCR technique. For this purpose, use was made of 24-well plates, which were seeded with 5.0×10^4 cells with 0.3 ml of OPTI-MEM (GIBCO BRL) medium, 4% FBS and 2 mM L-glutammine (experiments in triplicate) per well. The cells were incubated for 24 hours at 37° C., in an atmosphere containing 5% CO2 to permit adherence to the base of the wells. Each oligonucleotide analyzed, except for the PNA oligonucleotides, was incubated beforehand with 2 μl of Lipofectamine 2000 (Invitrogen), with 0.3 mL of serum-free OPTI-MEM (GIBCO BRL) medium. For each well, the oligonucleotides were analyzed at the following final concentrations: • the antisense oligonucleotides siRNA and siRNA gapmer (i.e. the oligonucleotides containing one or more monomers of chemically modified nucleic acids at the 3' or 5' end, while in the central portion they have monomers of nucleic acids that have not been modified or have been modified at the level of the phosphodiester bond as a phosphorothioate bond) were used at 200 nM; • the antisense oligonucleotides containing phosphorothioate DNA monomers, the RNA antigene oligonucleotides (agRNA) and the oligonucleotides containing DNA monomers and LNA monomers were used at 10 μM; • the morpholino oligonucleotides were used at a concentration of 1 μM, and • the PNA oligonucleotides were administered at a concentration of 1 μM. The cells were treated with the oligonucleotides, adding FBS up to 4% 6 hours after administration of the same. After 24 hours the total RNA was extracted from each well and purified using the RNeasy Mini Kit (QIAGEN). Assays were performed on 8 cell lines obtained from 5 different human tumours which are correlated with MYCN expression, i.e.: • as a neuroblastoma model use was made of the cell lines Kelly, IMR-32 (where the MYCN gene is amplified and superexpressed) and SKNBE2c and LAN1 (where the MYCN gene is amplified and superexpressed and the p53 gene is mutated); • as a rabdomiosarcoma model use was made of the cell line RH30, where the MYCN gene is amplified and superexpressed; • as a Wilms' tumour model use was made of the cell line WiT49, where the MYCN gene is amplified and superexpressed; • as a retinoblastoma model use was made of the cell line Y79, where the MYCN gene is amplified and superexpressed; and • as a model of small cell lung cancer use was made of the cell line H69 where the MYCN gene is amplified and superexpressed. As a control, use was made of the same cell lines as listed above treated with sterile water instead of oligonucleotides. Each RNA sample was quantified (in duplicate) using a NanoDrop ND-1000 spectrophotometer (NanoDrop Technologies). The first strand of cDNA was produced using the cDNA Synthesis Kit for RT-PCR (Roche). For the cDNA synthesis reaction a total of 1 μg of RNA was used. For the real-time PCR, 10 ng of cDNA in a final volume of 20 μl was used with SYBR Green Master Mix 2× (Applied Biosystems) (3 identical experiments were conducted in triplicate). Two housekeeping genes were used as positive controls: GAPDH and beta-actin (ACTB). The conditions of the QT-PCR reaction were: 10 min at 95° C., 20 sec at 95° C., and 30 sec at 60° C., for 50 cycles. The PNAs having SEQ ID NO: 1-12 were also tested on different cell lines which overexpress MYCN (Kelly, SKNBE2c, RH30, […] 1 and H69). The results are shown in Table 6 and confirm the selectivity and specificity of the inhibition effect of the PNAs on the product of protein translation of the MYCN gene. Chimeric oligonucleotides comprising DNA monomers and LNA monomers and having the MYCN gene as their target were tested in vitro on alveolar rabdomyosarcoma cells (RH30). […]

[2] = Table 9, siRNA and siRNA gapmer used at 200 nM
[3] = Table 9, siRNA and siRNA gapmer used at 200 nM with Lipofectamine 2000
[4] = Table 9, phosphorothioate DNA antisense used at 10 μM
[5] = Table 9, phosphorothioate DNA antisense used at 10 μM with Lipofectamine 2000

| Substance | Cell Prolif. (%) [1, 2] | mRNA inhibition (%) (MYCN gene; [3]) | Cell Prolif. (%) [1, 4] | mRNA inhibition (%) (MYCN gene; [5]) |
| --- | --- | --- | --- | --- |
| SEQ ID NO: 27: double-stranded siRNA against MYCN, sense GAUGAUGAAGAGGAAGAUG, antisense SEQ ID NO: 58 (antisense CAUCUUCCUCUUCAUCAUC; listed as RNA, chemistry not given here) | 43% | 70% | – | – |
| SEQ ID NO: 28: double-stranded siRNA against MYCN, sense UGAUGAAGAGGAAGAUGAA, antisense SEQ ID NO: 59 (antisense UUCAUCUUCCUCUUCAUCA; listed as RNA, chemistry not given here) | 35% | 78% | – | – |
| SEQ ID NO: 29: double-stranded siRNA against MYCN, sense GAGGAAGAUGAAGAGGAAG, antisense SEQ ID NO: 60 (antisense CUUCCUCUUCAUCUUCCUC; listed as RNA, chemistry not given here) | 28% | 85% | – | – |
| SEQ ID NO: 30: double-stranded siRNA against MYCN, sense GGAAGAUGAAGAGGAAGAA, antisense SEQ ID NO: 61 (antisense UUCUUCCUCUUCAUCUUCC; listed as RNA, chemistry not given here) | 30% | 81% | – | – |
| SEQ ID NO: 31: phosphorothioate DNA antisense oligonucleotide CGTGGAGCAGCTCGGCAT against MYCN (antisense dC*dG*dT*dG*dG*dA*dG*dC*dA*dG*dC*dT*dC*dG*dG*dC*dA*dT) | – | – | 73% | 34% |
| SEQ ID NO: 32: phosphorothioate DNA antisense oligonucleotide CAGGGTGTCCTCTCCGGA against MYCN (antisense dC*dA*dG*dG*dG*dT*dG*dT*dC*dC*dT*dC*dT*dC*dC*dG*dG*dA) | – | – | 65% | 45% |
| SEQ ID NO: 33: double-stranded chimeric RNA / 2′O-Methyl siRNA against MYCN, sense GAGGAAGAUGAAGAGGAAGTT, antisense SEQ ID NO: 62 (antisense CUUCCUCUUCAUCUUCCUCTT; RNA with some 2'-O-methyl monomers, positions not given here) | 85% | 13% | – | – |
| SEQ ID NO: 34: double-stranded chimeric RNA / 2′-Fluoro siRNA against MYCN, sense CAGGAAGAUGAAGAGGAAGUU, antisense SEQ ID NO: 63 (antisense GUUCCUCUUCAUCUUCCUCUU; RNA with some 2'-fluoro monomers, positions not given here) | 52% | 59% | – | – |
| SEQ ID NO: 35: double-stranded chimeric RNA / LNA siRNA against MYCN, sense GAGGAAGAUGAAGAGGAAGTT, antisense SEQ ID NO: 64 (antisense CUUCCUCUUCAUCUUCCUCTT; RNA with some LNA monomers, positions not given here) | 68% | 34% | – | – |
| SEQ ID NO: 36: double-stranded chimeric RNA / arabinoside RNA siRNA against MYCN, sense CAGGAAGAUGAAGAGGAAGAA, antisense SEQ ID NO: 65 (antisense GUUCCUCUUCAUCUUCCUCAA; arabinoside modifications, further chemistry not given here) | 35% | 69% | – | – |
